In US8765773B2, “Substituted hydroxamic acids and uses thereof” (Millennium Pharmaceuticals, Inc., priority 2010, dated 2014):

Molecular target: T1, purified human HDAC6 (Homo sapiens, UniProt Q9UBN7)
T1 construct: purchased BPS Bioscience 5006
T1 sequence (Q9UBN7 1-1215): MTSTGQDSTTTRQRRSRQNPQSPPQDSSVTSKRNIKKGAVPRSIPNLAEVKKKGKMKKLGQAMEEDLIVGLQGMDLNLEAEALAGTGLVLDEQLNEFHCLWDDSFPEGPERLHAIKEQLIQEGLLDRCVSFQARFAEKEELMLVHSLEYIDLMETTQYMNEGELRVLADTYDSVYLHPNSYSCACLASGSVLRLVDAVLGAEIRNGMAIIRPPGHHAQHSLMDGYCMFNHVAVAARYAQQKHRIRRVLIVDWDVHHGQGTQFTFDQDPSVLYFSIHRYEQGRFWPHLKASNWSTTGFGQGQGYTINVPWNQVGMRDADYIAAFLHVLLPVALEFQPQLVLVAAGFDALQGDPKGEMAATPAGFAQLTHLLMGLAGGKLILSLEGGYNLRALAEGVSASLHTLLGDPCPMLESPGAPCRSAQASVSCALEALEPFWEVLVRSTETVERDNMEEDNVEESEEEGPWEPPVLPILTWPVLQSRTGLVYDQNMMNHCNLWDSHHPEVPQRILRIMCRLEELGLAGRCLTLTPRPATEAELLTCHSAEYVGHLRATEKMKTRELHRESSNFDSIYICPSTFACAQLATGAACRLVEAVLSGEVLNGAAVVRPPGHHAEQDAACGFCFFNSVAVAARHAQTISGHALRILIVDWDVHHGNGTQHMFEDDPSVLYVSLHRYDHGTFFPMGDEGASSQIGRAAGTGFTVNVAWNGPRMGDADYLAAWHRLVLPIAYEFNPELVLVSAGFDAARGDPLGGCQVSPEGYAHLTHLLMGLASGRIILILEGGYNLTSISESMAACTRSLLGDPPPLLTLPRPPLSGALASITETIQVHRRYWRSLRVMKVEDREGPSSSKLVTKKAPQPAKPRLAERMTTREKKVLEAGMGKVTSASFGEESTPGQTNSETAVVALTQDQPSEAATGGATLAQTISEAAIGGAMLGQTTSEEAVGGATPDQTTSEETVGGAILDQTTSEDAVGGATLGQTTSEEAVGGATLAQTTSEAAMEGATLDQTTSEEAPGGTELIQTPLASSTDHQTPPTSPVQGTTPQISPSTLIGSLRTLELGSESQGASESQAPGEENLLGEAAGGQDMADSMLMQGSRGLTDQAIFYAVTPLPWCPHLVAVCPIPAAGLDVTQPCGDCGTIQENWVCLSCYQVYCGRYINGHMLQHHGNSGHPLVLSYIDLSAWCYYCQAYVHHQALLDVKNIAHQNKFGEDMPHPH
Experiment: HDAC6 Enzyme Assay
Type: biochemical
Conditions: read-out: Percent Inhibition; for inhibition at 0.412 µM: compound concentration 0.412 μM; for inhibition at 0.37 µM: compound concentration 0.37 μM
Protocol: To measure the inhibition of HDAC6 activity, purified human HDAC6 (BPS Bioscience; Cat. No. 5006) is incubated with substrate Ac-Arg-Gly-Lys(Ac)-AMC peptide (Bachem Biosciences; Cat. No. I-1925) for 1 hour at 30° C. in the presence of test compounds or vehicle DMSO control. The reaction is stopped with the HDAC inhibitor trichostatin A (Sigma; Cat. No. T8552) and the amount of Arg-Gly-Lys-AMC generated is quantitated by digestion with trypsin (Sigma; Cat. No. T1426) and subsequent measurement of the amount of AMC released using a fluorescent plate reader (Pherastar; BMG Technologies) set at Ex 340 nm and Em 460 nm. Concentration response curves are generated by calculating the fluorescence increase in test compound-treated samples relative to DMSO-treated controls, and percentage inhibition values at a single concentration or enzyme inhibition (IC50) values are determined from those curves. One skilled in the art will appreciate that the values generated either as percentage inhibition at a single concentration or IC50 values are subject to experimental variation.

Compound | inhibition at 0.412 µM [%] | inhibition at 0.37 µM [%]
O=C(NO)c1ccc2ncn(Cc3ccc(C(F)(F)F)cc3)c(=O)c2c1 [Compound I-30, N-hydroxy-4-oxo-3-[4-(trifluoromethyl)benzyl]-3,4-dihydroquinazoline-6-carboxamide] | 93.6 | –
O=C(NO)c1ccc2ccn(Cc3cccc(OCc4ccccc4)c3)c(=O)c2c1 [Compound I-31, 2-[3-(benzyloxy)benzyl]-N-hydroxy-1-oxo-1,2-dihydroisoquinoline-7-carboxamide] | 89.5 | –
CC(C)c1ccc(-c2cccc(Cn3cnc4ccc(C(=O)NO)cc4c3=O)c2)cc1 [Compound I-32, N-hydroxy-3-[(4′-isopropylbiphenyl-3-yl)methyl]-4-oxo-3,4-dihydroquinazoline-6-carboxamide] | – | 83.6
O=C(NO)c1ccc2ncn(Cc3ccccc3C(F)(F)F)c(=O)c2c1 [Compound I-36, N-hydroxy-4-oxo-3-[2-(trifluoromethyl)benzyl]-3,4-dihydroquinazoline-6-carboxamide] | 91.8 | –
O=C(NO)c1ccc2ncn(Cc3cccc(-c4cccc(OC(F)(F)F)c4)c3)c(=O)c2c1 [Compound I-37, N-hydroxy-4-oxo-3-{[3′-(trifluoromethoxy)biphenyl-3-yl]methyl}-3,4-dihydroquinazoline-6-carboxamide] | – | 89.8
Cc1ccccc1OCCCn1ccc2ccc(C(=O)NO)cc2c1=O [Compound I-38, N-hydroxy-2-[3-(2-methylphenoxy)propyl]-1-oxo-1,2-dihydroisoquinoline-7-carboxamide] | 96.1 | –
O=C(NO)c1ccc2c(=O)n(Cc3ccc(C(F)(F)F)cc3)c(CCc3ccccc3)nc2c1 [Compound I-39, N-hydroxy-4-oxo-2-(2-phenylethyl)-3-[4-(trifluoromethyl)benzyl]-3,4-dihydroquinazoline-7-carboxamide] | – | 84.5
O=C(NO)c1ccc2ccn(CCCOc3ccc4c(c3)CCC4)c(=O)c2c1 [Compound I-42, 2-[3-(2,3-dihydro-1H-inden-5-yloxy)propyl]-N-hydroxy-1-oxo-1,2-dihydroisoquinoline-7-carboxamide] | 94.4 | –
O=C(NO)c1ccc2c(=O)n(Cc3cccc(Cl)c3)cnc2c1 [Compound I-43, 3-(3-chlorobenzyl)-N-hydroxy-4-oxo-3,4-dihydroquinazoline-7-carboxamide] | 96.1 | –
O=C(NO)c1ccc2ccn(CCN(C(=O)C3CC3)c3cccc(-n4cccn4)c3)c(=O)c2c1 [Compound I-45, 2-(2-{(cyclopropylcarbonyl)[3-(1H-pyrazol-1-yl)phenyl]amino}ethyl)-N-hydroxy-1-oxo-1,2-dihydroisoquinoline-7-carboxamide] | – | 89.6
COc1ccc(Nc2nc3cc(C(=O)NO)ccc3c(=O)n2C)cc1 [Compound I-49, N-hydroxy-2-[(4-methoxyphenyl)amino]-3-methyl-4-oxo-3,4-dihydroquinazoline-7-carboxamide] | 55 | –
O=C(NO)c1ccc2ccn(Cc3ccc(F)cc3Cl)c(=O)c2c1 [Compound I-50, 2-(2-chloro-4-fluorobenzyl)-N-hydroxy-1-oxo-1,2-dihydroisoquinoline-7-carboxamide] | 94.9 | –
O=C(NO)c1ccc2ccn(CCCOc3ccccc3C(F)(F)F)c(=O)c2c1 [Compound I-52, N-hydroxy-1-oxo-2-{3-[2-(trifluoromethyl)phenoxy]propyl}-1,2-dihydroisoquinoline-7-carboxamide] | 90 | –
O=C(NO)c1ccc2ncn(Cc3cccc(OC(F)(F)F)c3)c(=O)c2c1 [Compound I-55, N-hydroxy-4-oxo-3-[3-(trifluoromethoxy)benzyl]-3,4-dihydroquinazoline-6-carboxamide] | 93.9 | –
CC(C)(C)OC(=O)N1CCC(NCc2nc3cc(C(=O)NO)ccc3c(=O)[nH]2)CC1 [Compound I-56, tert-butyl 4-[({7-[(hydroxyamino)carbonyl]-4-oxo-3,4-dihydroquinazolin-2-yl}methyl)amino]piperidine-1-carboxylate] | 69 | –
Cc1ccn(CCn2cnc3ccc(C(=O)NO)cc3c2=O)n1 [Compound I-57, N-hydroxy-3-[2-(3-methyl-1H-pyrazol-1-yl)ethyl]-4-oxo-3,4-dihydroquinazoline-6-carboxamide] | 77.4 | –

Second part, the molecule after the results:

inhibition at 0.412 µM [%] | inhibition at 0.37 µM [%] | Compound
94.4 | – | Cc1cc(C)cc(Cn2ccc3ccc(C(=O)NO)cc3c2=O)c1 [Compound I-33, 2-(3,5-dimethylbenzyl)-N-hydroxy-1-oxo-1,2-dihydroisoquinoline-7-carboxamide]
94.3 | – | COc1ccc(NCCCn2ccc3ccc(C(=O)NO)cc3c2=O)cc1 [Compound I-34, N-hydroxy-2-{3-[(4-methoxyphenyl)amino]propyl}-1-oxo-1,2-dihydroisoquinoline-7-carboxamide]
– | 66 | Cc1ccccc1Cc1nc2cc(C(=O)NO)ccc2c(=O)n1Cc1ccc(C(F)(F)F)cc1 [Compound I-35, N-hydroxy-2-(2-methylbenzyl)-4-oxo-3-[4-(trifluoromethyl)benzyl]-3,4-dihydroquinazoline-7-carboxamide]
44.5 | – | CC(C)Nc1nc2cc(C(=O)NO)ccc2c(=O)n1-c1ccc(Cl)cc1 [Compound I-40, 3-(4-chlorophenyl)-N-hydroxy-2-(isopropylamino)-4-oxo-3,4-dihydroquinazoline-7-carboxamide]
– | 73.2 | O=C(NO)c1ccc2ncn(CCN3CCCCC3)c(=O)c2c1 [Compound I-41, N-hydroxy-4-oxo-3-(2-piperidin-1-ylethyl)-3,4-dihydroquinazoline-6-carboxamide]
91.8 | – | CCCC(C)n1ccc2ccc(C(=O)NO)cc2c1=O (centres unmarked) [Compound I-44, N-hydroxy-2-(1-methylbutyl)-1-oxo-1,2-dihydroisoquinoline-7-carboxamide]
– | 94.4 | O=C(NO)c1ccc2ncn(Cc3cccc(-c4cccc(C(F)(F)F)c4)c3)c(=O)c2c1 [Compound I-46, N-hydroxy-4-oxo-3-{[3′-(trifluoromethyl)biphenyl-3-yl]methyl}-3,4-dihydroquinazoline-6-carboxamide]
44.2 | – | Cn1c(NCc2ccncc2)nc2cc(C(=O)NO)ccc2c1=O [Compound I-47, N-hydroxy-3-methyl-4-oxo-2-[(pyridin-4-ylmethyl)amino]-3,4-dihydroquinazoline-7-carboxamide]
97 | – | COc1ccccc1OCCn1ccc2ccc(C(=O)NO)cc2c1=O [Compound I-48, N-hydroxy-2-[2-(2-methoxyphenoxy)ethyl]-1-oxo-1,2-dihydroisoquinoline-7-carboxamide]
96.2 | – | CS(=O)(=O)c1ccccc1OCCCn1ccc2ccc(C(=O)NO)cc2c1=O [Compound I-51, N-hydroxy-2-{3-[2-(methylsulfonyl)phenoxy]propyl}-1-oxo-1,2-dihydroisoquinoline-7-carboxamide]
– | 65.5 | O=C(NO)c1ccc2c(=O)n(Cc3ccc(C(F)(F)F)cc3)c(CC3CCCCC3)nc2c1 [Compound I-53, 2-(cyclohexylmethyl)-N-hydroxy-4-oxo-3-[4-(trifluoromethyl)benzyl]-3,4-dihydroquinazoline-7-carboxamide]
94.5 | – | Cc1ccc(Cn2ccc3ccc(C(=O)NO)cc3c2=O)cc1F [Compound I-54, 2-(3-fluoro-4-methylbenzyl)-N-hydroxy-1-oxo-1,2-dihydroisoquinoline-7-carboxamide]
80.4 | – | CC(C)(C)OC(=O)N1CCC(CCn2ccc3ccc(C(=O)NO)cc3c2=O)CC1 [Compound I-58, tert-butyl 4-{2-[7-[(hydroxyamino)carbonyl]-1-oxoisoquinolin-2(1H)-yl]ethyl}piperidine-1-carboxylate]
